Experimental findings from PubChem BioAssay AID2790 (The Scripps Research Institute Molecular Screening Center, 2010) are described below.

Each structure is given as a SMILES string. Calls of active or inactive are those of the source.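 How the source made its calls: active means IC50 at or below 10 micromolar; inactive means IC50 above 10 micromolar.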

The experiment deals with Bcl-2-like protein 1 (Homo sapiens) (UniProt Q07817). Kind of experiment: Bcl-xL inhibition potency, Bim BH3 displacement, dose response, counter-screen for MCL1-BIM inhibitor project, biochemical, fluorescence polarization, powder samples (AID 2790). As to conditions: GST-BCL-XL / FITC-Bim BH3 fluorescence polarization.
Chain of Bcl-2-like protein 1 (Homo sapiens) (Q07817 whole entry, looked up): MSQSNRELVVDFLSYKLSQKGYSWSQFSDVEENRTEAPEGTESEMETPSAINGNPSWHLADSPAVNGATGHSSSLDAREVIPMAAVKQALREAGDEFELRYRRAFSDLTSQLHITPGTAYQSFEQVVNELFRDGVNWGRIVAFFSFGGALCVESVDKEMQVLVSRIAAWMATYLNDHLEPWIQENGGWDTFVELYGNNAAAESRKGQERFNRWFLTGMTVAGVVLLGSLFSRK
What is called IC50 is the concentration that gives 50% inhibition. On to `Nc1ccc(C(=O)NN=Cc2cc(N=Nc3cccc4ccccc34)ccc2O)cc1`, for which the IC50 was > 109 µM (inactive).
As to `C=CCn1c(SCC(=O)c2ccc(O)c(O)c2)nnc1-c1cccnc1`, the IC50 entry was “inactive”.
As to `CCOc1ccc(NC(=O)c2cccc(-n3cccc3)c2)cc1S(=O)(=O)N1CCOCC1`, the IC50 was > 109 µM (inactive).
On to `O=C(NN=Cc1cccc(F)c1)c1cc(-c2ccco2)nc2ccccc12`, for which the IC50 is > 109 µM (inactive).
Regarding `COc1ccc(Cc2nnc(NC(=O)Cc3cccs3)s2)cc1OC`, the IC50 was > 109 µM (inactive).
For `COc1ccc(NC(=O)CN(C)C(=O)c2cc3c(s2)CCC3)cc1`, the IC50 is > 109 µM (inactive).
As to `CCc1sc(C(C2C(=O)CC(C)(C)CC2=O)C2C(=O)CC(C)(C)CC2=O)cc1[N+](=O)[O-]`, the IC50 is > 109 µM (inactive).
With `Cc1cccc(NC(=O)CNC(=O)c2cccc(-n3cccc3)c2)c1C` the figure was > 109 µM (inactive); with `c1coc(-c2nc(-c3ccco3)c(-c3ccco3)nc2-c2ccco2)c1`, > 109 µM (inactive); with `O=C(NN=Cc1ccc(-c2ccc(S(=O)(=O)Nc3ncccn3)cc2)o1)c1cc2ccccc2cc1O`, > 109 µM (inactive).
On to `COc1ccc(-n2cccc2/C=C2\C(=N)N3N=C(c4ccco4)SC3=NC2=O)cc1`, for which the IC50 is > 109 µM (inactive).
Consider `Cc1ccc(C(=O)O)cc1-c1ccc(/C=C2\SC(=O)N(CC(=O)Nc3ccc4c(c3)OCO4)C2=O)o1`, for which the IC50 is > 109 µM (inactive).
With `COC(=O)c1ccccc1NCc1cc(=O)oc2cc(O)c(O)cc12` the figure was > 109 µM (inactive); with `C=CCN=c1scc(-c2ccco2)n1/N=C/c1ccc(O)c(O)c1O`, > 109 µM (inactive); with `O=C1COc2ccc(C(=O)COC(=O)/C=C/c3ccc(Br)o3)cc2N1`, > 109 µM (inactive).
